Where no end group is shown, it is not given here.
How the values were obtained:
[1] = LIVE/DEAD cell viability in alginate beads; type: cell-based; settings: bovine, bovine intervertebral disc NP and AF cells in alginate beads, 1 μg/ml, 18 days, alginate scaffolds, read-out: cellular viability
Protocol: Coccygeal IVDs from healthy 20-24 month old steers were obtained from a local abattoir at 2-3 hours after slaughter. The IVDs were separated from their adjacent vertebral bodies, and the cells were isolated from the NP and AF regions by sequential digestion with 0.2% Pronase followed by 0.125% Collagenase digestion as previously described. After isolation, the NP and AF cells were either immediately embedded in alginate beads or were plated in 6 well plates for protein extraction.
After isolation the NP and AF cells were resuspended in 1.2% alginate (dissolved in 0.15 M NaCl) at a concentration of 2 million cells per ml. Alginate was chosen to assess the effect on matrix production in the absence of extensive cell proliferation. Droplets of cell suspension were released through an 18-gauge needle into 102 mM calcium chloride solution and were let to polymerize for 10 minutes. Alginate beads were subsequently stabilized for 7 days in culture media (Dulbecco's Modified Eagle Medium high glucose supplemented with 10% fetal bovine serum and antibiotics). […]
Cell viability was assessed at day 18 on the alginate beads using a live/dead fluorescence assay (Live/Dead®, Invitrogen) and visualized by fluorescent microscopy.

human NP cells = experiment: Stability of Link N in the presence of cells (monolayer, mass spectrometry); type: in vitro ADME; settings: Link N 1 μg/mL, 37° C.
Protocol: (§1) To evaluate the stability of Link N, freshly isolated human cells from NP and AF regions were plated in 6 well culture plates at a density of 250,000 cells per well. Cells were cultured at 37° C., 5% CO2 in 3 mL DMEM, containing 4.5 g/L glucose and supplemented with 10% FCS, 25 mmol/L HEPES, 50 μg/mL gentamicin sulphate, 0.25 μg/mL fungizone, 50 μg/mL L-ascorbate, and 2 mmol/L GlutaMAX. The wells were left for 2 days before exposure to Link-N (1 μg/mL). 200 μL medium was collected at fixed time points (0 h, 6 h, 12 h, 24 h, 36 h, and 48 h). Stability of the peptide was also studied at the same time points in the absence of cells.
(§2) 25 μL medium samples, collected from the monolayer cultures described above or peptide digests were purified on C18 spin columns according to standard protocols (Harvard Apparatus, Holliston, Mass.). Eluted peptides were reconstituted in 20 μL, 2% acetonitrile and 0.2% formic acid (FA). Samples were injected and quantified using a triple quadropole mass spectrometer TSQ Vantage™ (Thermo Scientific, Waltham, Mass.) equipped with an easy nano-LC system (Thermo Scientific). The mass spectrometer was operated in SRM mode, with both Q1 and Q3 settings at unit resolution (FWHM 0.7 Da). A spray voltage of +1,700 V was used with a heated ion transfer setting of 270° C. for desolvation. Data were acquired using the Xcalibur software (version 2.1). […]

human AF cells = experiment: Stability and processing of Link N in the presence of cells (monolayer, mass spectrometry); type: in vitro ADME; settings: for peak area intensity of intact Link N in the presence of AF cells: human AF cells in monolayer
Protocol: as §1
as §2, with “2.1). Mobile phases used were A (0.1% FA in water) and B (100% acetonitrile in 0.1% FA). Separation was performed on 10 μm tip, 75 μm×15 cm capillary columns (PicoTip™ emitter, New Objective, Woburn, Mass.) packed with Reprosil-Pur C18-AQ resin (3 μm, Dr. Maich GmbH, Switzerland). 1 μL sample was injected and separation was performed at a flow rate of 300 nL/min using a gradient of 97% mobile phase A for 5 min, 85% A for 8 min, 65% A for 42 min, and 19% A for 45-50 min.” for “2.1).”

ADAMTS 4 = target: T1, ADAMTS 4 (Homo sapiens, UniProt O75173); experiment: Proteinase treatment of Link N, peak area by mass spectrometry; type: in vitro ADME; settings: 30 minutes, 2 and 24 hours
T1 construct: purchased R&D Systems
Protocol: (§3) 300 μg Link N 1-16 was incubated for 30 minutes, 2 and 24 hours in the presence of 10 different proteinases. The buffer used for MMPs 3, 7, 12, 13, ADAMTS 4,5, HTRA1 was composed of 50 mM Tris-HCl, 200 mM NaCl, 5 mM CaCl2, 0.01% Rapigest. For cathepsins K, B, and L, the digest buffer was composed of 2.5 mM DTT, 0.15% chondroitin sulfate A, 0.1 M sodium acetate, pH 5.5.
(§4) 25 μL medium samples, collected from the monolayer cultures described above or peptide digests were purified on C18 spin columns according to standard protocols (Harvard Apparatus, Holliston, Mass.). Eluted peptides were reconstituted in 20 μL, 2% acetonitrile and 0.2% formic acid (FA). Samples were injected and quantified using a triple quadropole mass spectrometer TSQ Vantage™ (Thermo Scientific, Waltham, Mass.) equipped with an easy nano-LC system (Thermo Scientific). The mass spectrometer was operated in SRM mode, with both Q1 and Q3 settings at unit resolution (FWHM 0.7 Da). A spray voltage of +1,700 V was used with a heated ion transfer setting of 270° C. for desolvation. Data were acquired using the Xcalibur software (version 2.1). Mobile phases used were A (0.1% FA in water) and B (100% acetonitrile in 0.1% FA). Separation was performed on 10 μm tip, 75 μm×15 cm capillary columns (PicoTip™ emitter, New Objective, Woburn, Mass.) packed with Reprosil-Pur C18-AQ resin (3 μm, Dr. Maich GmbH, Switzerland). 1 μL sample was injected and separation was performed at a flow rate of 300 nL/min using a gradient of 97% mobile phase A for 5 min, 85% A for 8 min, 65% A for 42 min, and 19% A for 45-50 min.

ADAMTS 5 = target: T2, ADAMTS 5 (Homo sapiens, UniProt Q9UNA0); experiment: as above; type: in vitro ADME; settings: 30 minutes, 2 and 24 hours
T2 construct: purchased R&D Systems
Protocol: as §3, §4

HTRA1 = target: T3, HTRA1 (Homo sapiens, UniProt Q92743); experiment: as above; type: in vitro ADME; settings: 30 minutes, 2 and 24 hours
T3 construct: purchased Thermo Scientific
Protocol: as §3, §4

MMP 12 = target: T4, MMP 12 (Homo sapiens, UniProt P39900); experiment: as above; type: in vitro ADME; settings: 30 minutes, 2 and 24 hours
T4 construct: purchased R&D Systems
Protocol: as §3, §4

MMP 13 = target: T5, MMP 13 (Homo sapiens, UniProt P45452); experiment: as above; type: in vitro ADME; settings: 30 minutes, 2 and 24 hours
T5 construct: purchased R&D Systems
Protocol: as §3, §4

MMP 3 = target: T6, MMP 3 (Homo sapiens, UniProt P08254); experiment: as above; type: in vitro ADME; settings: 30 minutes, 2 and 24 hours
T6 construct: purchased R&D Systems
Protocol: as §3, §4

MMP 7 = target: T7, MMP 7 (Homo sapiens, UniProt P09237); experiment: as above; type: in vitro ADME; settings: 30 minutes, 2 and 24 hours
T7 construct: purchased R&D Systems
Protocol: as §3, §4

cathepsin B = cathepsin B (Homo sapiens, UniProt P07858); experiment: as above; type: in vitro ADME; settings: 30 minutes, 2 and 24 hours
Protocol: as §3, §4

cathepsin K = target: T8, cathepsin K (Homo sapiens, UniProt P43235); experiment: as above; type: in vitro ADME
T8 sequence (P43235 115-329): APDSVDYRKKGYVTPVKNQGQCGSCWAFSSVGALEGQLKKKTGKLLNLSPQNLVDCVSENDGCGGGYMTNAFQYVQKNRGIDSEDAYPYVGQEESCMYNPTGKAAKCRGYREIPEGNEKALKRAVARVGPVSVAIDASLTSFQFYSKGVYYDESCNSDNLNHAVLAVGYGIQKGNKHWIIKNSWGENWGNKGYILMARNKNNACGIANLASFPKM
Protocol: as §3, §4

cathepsin L = cathepsin L (Homo sapiens, UniProt P07711); experiment: as above; type: in vitro ADME; settings: 30 minutes, 2 and 24 hours
Protocol: as §3, §4

[2] = cited from earlier work
[3] = test system: bovine annulus fibrosus (AF) cells; experiment: Proteoglycan synthesis by 35SO4 incorporation, cells in alginate beads; type: cell-based; settings: 48 h, 16-mer peptides 1 μg/mL, 8-mer peptides 0.5 μg/mL, vs medium alone
Protocol: (§5) Human and bovine IVDs were separated from the adjoining vertebral body and divided into NP and AF for bovine IVDs and NP and inner annulus fibrosus (iAF) for human IVDs. Tissue from the human outer annulus fibrosus (oAF) was not used for cell isolation in this study. Cells were enzymatically isolated from each region as previously described (63). Briefly, NP and AF tissues were dissected into approximately 2-mm thick pieces, washed twice in PBS containing 50 μg/mL gentamicin, […] and 0.25 μg/mL fungizone, then digested with 0.2% pronase for 1 h, followed by collagenase type IA at 0.01% for NP and 0.04% for AF tissue for 4 h in serum free DMEM.
(§6) To compare the metabolic response to the various Link N peptides, freshly isolated human and bovine cells from NP and AF regions were embedded in 1.2% alginate beads, as previously described (65). Cells in alginate beads were cultured at 37° C., 5% CO2 in DMEM, containing 4.5 g/L glucose and supplemented with 10% FCS, 25 mmol/L HEPES, 50 μg/mL gentamicin sulphate, 0.25 μg/mL fungizone, 50 μg/mL L-ascorbate, and 2 mmol/L GlutaMAX. The beads were stabilized for 7 days and cell viability was assessed by Live/Dead® assay prior to further treatment. 5 beads per well were then cultured in 48 well plates in the presence of equimolar concentrations of either Link N (1 μg/mL), R-Link N (1 μg/mL), S-Link N (1 μg/mL), Link N 1-8 (0.5 μg/mL) or Link N 9-16 (0.5 μg/mL) in 0.5 mL DMEM. 25 μCi/mL ^35SO4 was added to the medium to allow assessment of proteoglycan synthesis (66). In addition, beads were exposed for 48 h to IL-1β (10 ng/mL) alone, or to a combination of peptides and IL-1β (51). At the end of the culture period, medium was collected and dialyzed exhaustively against miliQ water at […] (Spectra/Por® 3), followed by cold chase with 1M MgSO4 for 2 h to remove any remaining unincorporated ^35SO4. The ^35SO4 incorporation was measured using a beta scintillation counter (Beckman Coulter LS6500, Beckman Coulter, Mississauga, Canada).

[4] = test system: bovine nucleus pulposus (NP) cells; experiment: as above; type: cell-based; settings: 48 h, 16-mer peptides 1 μg/mL, 8-mer peptides 0.5 μg/mL, vs medium alone
Protocol: as §5, §6

[5] = test system: human inner annulus fibrosus (iAF) cells; experiment: as above; type: cell-based; settings: human AF (iAF) cells, 48 h; for proteoglycan synthesis (35SO4 incorporation): 16-mer peptides 1 μg/mL, 8-mer peptides 0.5 μg/mL, vs medium alone
Protocol: (§7) Human thoracolumbar spines were retrieved through the Transplant Quebec organ donation program. Discs were obtained from 7 donors, 1 male and 6 female, with a mean age of 29.6 years and an age range of 16 to 47 years (Table 1). Donors having had recent chemotherapy, radiation therapies to the spine, or significant long-standing paralysis were excluded from the study. Spine retrieval was performed within 8 h of death. Discs with calcification and loss of disc height were not included in the study. All procedures were approved by the institutional review board of the Montreal General Hospital.
as §5, §6

[6] = test system: human nucleus pulposus (NP) cells; experiment: as above; type: cell-based; settings: 48 h; for proteoglycan synthesis (35SO4 incorporation): 16-mer peptides 1 μg/mL, 8-mer peptides 0.5 μg/mL, vs medium alone
Protocol: as §7, §5, §6

[7] = test system: cells from degenerated disc tissue; settings: Wang et al.; 100 ng/mL; monolayer-expanded cells in 3D culture; cited from earlier work
[8] = IL-1β 10 ng/mL, vs IL-1-containing medium

T4 sequence (P39900 106-470): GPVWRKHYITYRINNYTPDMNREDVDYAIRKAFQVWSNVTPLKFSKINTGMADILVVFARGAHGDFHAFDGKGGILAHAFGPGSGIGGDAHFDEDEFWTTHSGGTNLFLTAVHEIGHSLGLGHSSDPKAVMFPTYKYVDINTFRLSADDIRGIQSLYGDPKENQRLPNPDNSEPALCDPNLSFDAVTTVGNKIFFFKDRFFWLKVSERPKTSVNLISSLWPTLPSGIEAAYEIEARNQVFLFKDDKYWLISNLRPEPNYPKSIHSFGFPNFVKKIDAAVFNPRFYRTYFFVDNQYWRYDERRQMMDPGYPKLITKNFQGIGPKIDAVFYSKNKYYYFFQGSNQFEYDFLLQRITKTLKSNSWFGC
T3 sequence (Q92743 23-480): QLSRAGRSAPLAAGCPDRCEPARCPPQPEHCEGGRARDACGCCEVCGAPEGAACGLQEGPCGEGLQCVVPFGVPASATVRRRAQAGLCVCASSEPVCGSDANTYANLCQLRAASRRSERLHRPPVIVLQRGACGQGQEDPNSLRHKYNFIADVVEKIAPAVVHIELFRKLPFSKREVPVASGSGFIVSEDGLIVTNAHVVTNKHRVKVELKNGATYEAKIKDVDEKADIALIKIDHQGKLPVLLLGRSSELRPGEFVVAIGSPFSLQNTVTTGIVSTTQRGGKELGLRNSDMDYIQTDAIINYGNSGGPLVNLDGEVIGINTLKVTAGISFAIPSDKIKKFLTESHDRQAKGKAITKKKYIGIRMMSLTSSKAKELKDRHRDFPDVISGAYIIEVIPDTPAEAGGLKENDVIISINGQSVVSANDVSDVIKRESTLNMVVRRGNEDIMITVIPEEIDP
T6 sequence (P08254 100-477): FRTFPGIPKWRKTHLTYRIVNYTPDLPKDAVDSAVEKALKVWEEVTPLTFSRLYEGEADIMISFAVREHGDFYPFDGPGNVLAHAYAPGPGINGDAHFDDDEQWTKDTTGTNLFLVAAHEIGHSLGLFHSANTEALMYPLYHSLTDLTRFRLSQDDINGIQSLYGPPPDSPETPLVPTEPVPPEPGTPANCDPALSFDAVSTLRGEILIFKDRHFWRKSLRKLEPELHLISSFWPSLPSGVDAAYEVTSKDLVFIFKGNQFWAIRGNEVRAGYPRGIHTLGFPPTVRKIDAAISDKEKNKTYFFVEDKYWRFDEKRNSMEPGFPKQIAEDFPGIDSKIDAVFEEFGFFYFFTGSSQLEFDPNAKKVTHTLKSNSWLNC
Sequence of cathepsin L (P07711 114-333): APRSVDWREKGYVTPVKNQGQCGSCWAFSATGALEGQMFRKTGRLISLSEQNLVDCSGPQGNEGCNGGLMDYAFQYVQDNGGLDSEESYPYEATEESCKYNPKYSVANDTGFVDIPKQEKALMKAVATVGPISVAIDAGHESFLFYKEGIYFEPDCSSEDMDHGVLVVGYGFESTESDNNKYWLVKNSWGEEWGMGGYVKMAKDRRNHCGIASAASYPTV
T2 sequence (Q9UNA0 262-930): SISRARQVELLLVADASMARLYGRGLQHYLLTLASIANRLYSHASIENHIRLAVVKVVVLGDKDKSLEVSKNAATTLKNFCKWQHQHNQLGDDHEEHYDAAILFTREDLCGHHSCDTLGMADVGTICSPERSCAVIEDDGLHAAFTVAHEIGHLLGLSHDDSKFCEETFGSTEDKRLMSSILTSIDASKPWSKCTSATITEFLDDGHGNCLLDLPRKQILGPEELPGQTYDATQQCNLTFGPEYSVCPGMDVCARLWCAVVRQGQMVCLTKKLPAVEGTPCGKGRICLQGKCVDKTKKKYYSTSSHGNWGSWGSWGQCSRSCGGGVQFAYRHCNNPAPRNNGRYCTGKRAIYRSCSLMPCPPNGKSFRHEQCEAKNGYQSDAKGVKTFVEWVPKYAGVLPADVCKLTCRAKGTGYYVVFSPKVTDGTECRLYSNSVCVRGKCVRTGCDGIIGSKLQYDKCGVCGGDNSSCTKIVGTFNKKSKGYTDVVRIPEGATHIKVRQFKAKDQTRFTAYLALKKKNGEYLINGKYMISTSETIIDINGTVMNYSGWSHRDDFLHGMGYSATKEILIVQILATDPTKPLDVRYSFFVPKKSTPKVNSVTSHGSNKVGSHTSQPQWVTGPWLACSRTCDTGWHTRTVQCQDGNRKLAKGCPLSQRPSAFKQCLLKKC
T7 sequence (P09237 95-267): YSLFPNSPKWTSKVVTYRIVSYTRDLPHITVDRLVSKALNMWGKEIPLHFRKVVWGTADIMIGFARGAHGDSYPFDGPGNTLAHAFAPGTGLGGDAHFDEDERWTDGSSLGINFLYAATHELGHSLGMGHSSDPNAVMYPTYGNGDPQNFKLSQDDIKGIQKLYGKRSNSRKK
T1 sequence (O75173 213-837): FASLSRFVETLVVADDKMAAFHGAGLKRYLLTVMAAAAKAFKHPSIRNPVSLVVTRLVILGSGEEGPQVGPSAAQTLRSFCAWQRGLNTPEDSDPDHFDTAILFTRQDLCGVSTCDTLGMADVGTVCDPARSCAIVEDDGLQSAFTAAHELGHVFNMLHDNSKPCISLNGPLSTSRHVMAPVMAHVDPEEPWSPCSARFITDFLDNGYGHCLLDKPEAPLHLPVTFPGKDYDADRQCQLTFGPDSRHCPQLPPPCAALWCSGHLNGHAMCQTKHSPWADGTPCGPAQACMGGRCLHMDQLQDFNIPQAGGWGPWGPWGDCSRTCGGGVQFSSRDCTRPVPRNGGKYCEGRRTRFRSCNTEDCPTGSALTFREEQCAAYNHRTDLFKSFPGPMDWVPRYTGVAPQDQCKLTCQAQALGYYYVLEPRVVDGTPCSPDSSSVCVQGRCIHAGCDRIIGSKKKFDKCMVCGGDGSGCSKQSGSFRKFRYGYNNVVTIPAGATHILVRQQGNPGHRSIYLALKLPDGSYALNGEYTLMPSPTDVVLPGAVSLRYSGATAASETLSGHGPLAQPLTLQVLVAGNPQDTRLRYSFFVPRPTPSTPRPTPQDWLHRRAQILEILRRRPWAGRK

DHHSDNYTVDHDRVIH [BLN, DHHSDNYTVDHDRVIH]
viability at 432 h, 1 µg/mL [1]: > 98%

DHLSDNYTLDHDRAIH [Link N, DHLSDNYTLDHDRAIH]
time the peptide was stable in the presence of NP cells (human NP cells): at least 48 h
processed product of Link N identified by tandem mass spectrometry (human AF cells; AF cell culture medium, 964.4 Da peptide): a peptide spanning residues 1 to 8 was generated
peak area intensity of intact Link N in the presence of AF cells (human AF cells; after 48 h): only trace amounts were present
peak area intensity of intact Link N in the presence of AF cells (human AF cells; by 6 h): decrease
peak area intensity of the 1922 Da Link 1-16 peptide (ADAMTS 4): un-affected
peak area intensity of the 1922 Da Link 1-16 peptide (ADAMTS 5): un-affected
peak area intensity of the 1922 Da Link 1-16 peptide (HTRA1): un-affected
peak area intensity of the 1922 Da Link 1-16 peptide (MMP 12): un-affected
peak area intensity of the 1922 Da Link 1-16 peptide (MMP 13): un-affected
peak area intensity of the 1922 Da Link 1-16 peptide (MMP 3): un-affected
peak area intensity of the 1922 Da Link 1-16 peptide (MMP 7): un-affected
peak area intensity of the 1922 Da Link 1-16 peptide (cathepsin B): un-affected
peak area intensity of the 1922 Da Link 1-16 peptide (cathepsin K; 2 and 24 hours): hardly detectable
peak area intensity of the 1922 Da Link 1-16 peptide (cathepsin K; 30 minutes): significantly diminished
cleavage of Link N by cathepsin K (MRM of Link 1-8 and Link 9-16) (cathepsin K; 2 hours): single cleavage between amino acids 8 and 9
peak area intensity of the 1922 Da Link 1-16 peptide (cathepsin L): un-affected
viability at 432 h, 1 µg/mL [1]: > 98%
retention of Link N in the human disc [2]: only lost slowly through the endplate and not AF

DLNRAHLHIDYHTDSD [S-Link N, scrambled Link N]
proteoglycan synthesis (35SO4 incorporation) [3]: no effect was observed
proteoglycan synthesis (35SO4 incorporation) [4]: no effect was observed
proteoglycan synthesis (35SO4 incorporation) [5]: no response
proteoglycan synthesis (35SO4 incorporation) [6]: no response

HIARDHDLTYNDSLHD [R-Link N, reverse Link N]
proteoglycan synthesis (35SO4 incorporation) [3]: no effect was observed
proteoglycan synthesis (35SO4 incorporation) [4]: no effect was observed
proteoglycan synthesis (35SO4 incorporation) [5]: no response
proteoglycan synthesis (35SO4 incorporation) [6]: no response

LDHDRAIH [Link N 9-16, second 8 peptide residues of Link N]
proteoglycan synthesis (35SO4 incorporation) [3]: no effect was seen
proteoglycan synthesis (35SO4 incorporation) [4]: no effect was seen
proteoglycan synthesis (35SO4 incorporation) [5]: no response
proteoglycan synthesis (35SO4 incorporation) in the presence of IL-1β [5, 8]: no response
proteoglycan synthesis (35SO4 incorporation) [6]: no response
proteoglycan synthesis (35SO4 incorporation) in the presence of IL-1β [6, 8]: no response

residue 1-12 peptide: Link N-derived peptide spanning amino acid residues 1-12, tested by Wang et al. (DHLSDNYTLDHD; UniProt P10915 16-27, looked up, fragment)
stimulatory effect (cell-associated sulphated GAG) [7]: inactive
